Experimental data as given in patent US20260207564A1, “DOSAGE REGIME OF ORFORGLIPRON FOR TREATING A SUBJECT WITH TYPE 2 DIABETES (T2D), OBESITY, OR OVERWEIGHT WITH AT LEAST ONE WEIGHT RELATED COMORBIDITY” (Eli Lilly and Company, priority 2022, published 2026).

What was measured:
[1] = Phase 1 studies of clinical pharmacology, PK and PD in healthy volunteers and in participants with T2D; assay type: in vivo, human
Description: The clinical pharmacology, PK, and PD of Compound 1a were studied in 2 completed Phase 1 studies in healthy volunteers and in participants with T2D).

[2] = Phase 2 study in obesity or overweight with at least one weight related comorbidity, 36 weeks (Example 4A); assay type: in vivo, human
Description: The primary endpoint was the percentage change in body weight from baseline to week 26, with a secondary 36-week endpoint.
A 36-week Phase 2, multicenter, randomized, double-blind, parallel, placebo-controlled study was designed to examine the efficacy and safety of 4 dose levels of once daily administered Compound 1a, compared with once daily administered placebo in participants with obesity or overweight with at least one weight related comorbidity. A total of 272 patients were randomized 5:5:5:3:3:3:3 to once daily placebo or Compound 1a maintenance doses of 12 mg, 24 mg, 36 mg (36-1, 36-2) or 45 mg (45-1, 45-2) treatment groups. The 36 and 45 mg cohorts were subdivided in a 36 mg-1 and 36 mg-2 as well as 45 mg-1 and 45 mg-2 respectively, as different starting doses, dose escalations and dose escalation steps were investigated in these subgroup cohorts (FIG. 2). The different dose escalations were performed to assess the maintenance dose and titration steps for future trials.
Eligible male or female participants were >18 years of age with a HbA1c<6.5% (48 mmol/mol) and a BMI of ≥30 kg/m2 or ≥27 kg/m2 and <30 kg/m2 with at least 1 of the following weight-related comorbidities: hypertension, dyslipidemia, cardiovascular disease, or obstructive sleep apnea.
The study period included a 2-week screening/lead in period, a 36-week treatment period followed by a 2 week off-drug safety follow-up period. During the treatment period, doses were escalated for all treatment groups. The dose escalation period ranged from 0 to 16 weeks depending on dose group. The initial dose was 2 or 3 mg followed by additional escalation steps depending on assigned cohort (FIG. 2). Compound 1a or matching placebo was administered daily by oral capsule. All participants were provided healthy eating and exercise education by study personnel throughout the trial.
The primary endpoint was percent change in body weight from baseline at week 26. Secondary endpoints included percent change in body weight from baseline at week 36, change from baseline in body weight (kg), BMI (kg/m2) and waist circumference (cm), and percentage of study participants who achieved ≥5% body weight (kg) reduction, and ≥10% body weight (kg) reduction, at week 26 and week 36. Key safety endpoints included adverse events, blood pressure, heart rate, safety laboratory measures, PK parameters, and patient-reported outcomes.
A sample size of 270 participants was calculated to provide at least 90% power for testing superiority of Compound 1 versus placebo in the primary endpoint. The estimand used for efficacy analyses was an “efficacy estimand”, representing the average treatment effect for the randomized population if the treatment was administered as intended, thus including data from all randomized participants who received at least one dose of study drug and excluding data after permanent discontinuation of study drug. All tests of treatment effects were conducted at a 2-sided alpha level of 0.05 without adjustment for multiple comparisons, and 2-sided 95% CIs were calculated. To test efficacy of Compound 1a with adequate statistical power, for 36 mg and 45 mg the evaluation of the primary endpoint was made by pooling 2 dose escalation regimens (combining 36 mg-1 and 36 mg-2, for 36 mg, and combining 45 mg-1 and 45 mg-2, for 45 mg).
(§1) Safety analyses were conducted by comparing safety of Compound 1a with placebo irrespective of adherence to study drug. The safety analyses were conducted using the safety analysis set, which includes all randomized participants who received at least one dose of study drug. The results were presented in summary statistics, point estimates, and 95% confidence intervals along with p-values for treatment comparisons.

[3] = assay type: in vivo, human; settings: 26 weeks, 3 mg to 45 mg QD
Procedure: Two Phase 2 studies have evaluated the safety and efficacy of Compound 1a for the treatment of T2D and another for treatment of obesity or overweight with at least one weight related comorbidity.
The 36 and 45 mg cohorts were subdivided in a 36 mg-1 and 36 mg-2 as well as 45 mg-1 and 45 mg-2 respectively, as different starting doses, dose escalations and dose escalation steps were investigated in these subgroup cohorts (FIG. 4).
Eligible male or female participants were >18 years of age with T2D with a HbA1c 7.0% to 10.5% and a body mass index (BMI) of ≥23 kg/m2, treated with diet and exercise alone or with a stable dose of metformin and with a stable body weight (≤5% body weight gain and/or loss) for at least 3 months prior to screening/Visit 1.
The study period included a 2-week screening/lead in period and a 26-week treatment period. During the treatment period, doses were escalated for all treatment groups. The dose escalation period ranged from 4 to 12 weeks depending on dose group. The initial dose was 2 or 3 mg followed by additional escalation steps depending on assigned cohort (FIG. 4). […] All participants were provided healthy eating and exercise education by study personnel throughout the trial.
Key Safety and tolerability endpoints included the frequency of patient- and investigator-reported adverse events, rate and incidence of hypoglycaemia events (glucose <70 mg/dL [3.9 mmol/L] and ≥54 mg/dL [3.0 mmol/L], or glucose <54 mg/dL [3.0 mmol/L]), and change in safety laboratory parameters, electrocardiogram, and vital signs.
The estimand used for efficacy analyses was an “efficacy estimand”, representing the average treatment effect for the randomized population if the treatment was administered as intended, thus including data from all randomized participants who received at least one dose of study drug and excluding data after permanent discontinuation of study drug. All tests of treatment effects were conducted at a 2-sided alpha level of 0.05 without adjustment for multiple comparisons, and 2-sided 95% CIs were calculated.
as §1, with “OFG” for “Compound 1a”, “placebo and with dulaglutide” for “placebo”

[4] = after 12 weeks of treatment, 9 mg QD to 45 mg QD, people with T2D

Compound: Cc1cc(-n2nc3c(c2-n2ccn(-c4ccc5c(cnn5C)c4F)c2=O)[C@H](C)N(C(=O)c2cc4cc([C@H]5CCOC(C)(C)C5)ccc4n2[C@@]2(c4noc(=O)[nH]4)C[C@@H]2C)CC3)cc(C)c1F [Compound 1a, 3-[(1S,2S)-1-[5-[(4S)-2,2-dimethyloxan-4-yl]-2-[(4S)-2-(4-fluoro-3,5-dimethylphenyl)-3-[3-(4-fluoro-1-methylindazol-5-yl)-2-oxoimidazol-1-yl]-4-methyl-6,7-dihydro-4H-pyrazolo[4,3-c]pyridine-5-carbonyl]indol-1-yl]-2-methylcyclopropyl]-4H-1,2,4-oxadiazol-5-one]
- PK of Compound 1a plasma concentration increase with dose ([1]; 9 mg QD to 45 mg QD dose range): approximately proportional to the increase of dose
- PK profile ([1]; Phase 1 studies): appropriate for once daily oral dosing
- most reported AEs ([1]; Phase 1 studies): nausea, vomiting, and constipation
- improvements in HbA1c [1, 4]: up to −1.4%
- weight loss [1, 4]: up to −5.8 kg
- percentage of patients who had weight reduction of 15% or more ([2]; 36 weeks, 45 mg): 48%
- percentage of patients who had weight reduction of 10% or more ([2]; 36 weeks, across dose groups): 47% to 75
- percentage of patients who reported AEs ([2]; across dose groups): 86% to 90.2
- mean reduction in systolic blood pressure (SBP) ([2]; baseline to week 26, across dose groups): −4.8 to −10.5 mmHg
- mean reduction in systolic blood pressure (SBP) ([2]; baseline to week 36, across dose groups): −6.7 to −10.5 mmHg
- tolerability by escalation interval ([2]; dose escalated every 3 weeks compared to every 1-2 weeks): superior tolerability
- Liver function tests compared with placebo ([2]; in vivo): not significantly increased
- Most common TEAEs ([2]; in vivo): GI related (nausea, vomiting, diarrhea and constipation)
- diastolic blood pressure (DBP) compared to placebo ([2]; in vivo): No differences were noted
- health-related quality of life and physical activity readouts versus placebo ([2]; in vivo): greater improvements
- most common adverse events ([2]; in vivo): gastrointestinal, mild to moderate in severity
- most common events reported ([2]; in vivo): Nausea, constipation, vomiting, diarrhea, and eructation
- prespecified weight and cardiometabolic measures ([2]; in vivo): improvements in all prespecified weight and cardiometabolic measures
- mean percent weight loss compared to placebo ([2]; primary 26-week endpoint): 11%
- mean percent weight loss from baseline ([2]; primary 26-week endpoint): up to 13%
- GI AE events by starting dose ([2]; starting dose of 3 mg versus 2 mg starting dose): higher GI AE events
- mean percentage change in body weight from baseline ([2]; week 26, across dose groups 12-45 mg): −8.6% to −12.6
- HDL cholesterol versus placebo ([2]; week 36): no significant change
- changes in the fasting lipids (triglycerides, total cholesterol, non-HDL cholesterol, LDL and VLDL) ([2]; week 36): Benefits with Compound 1a were noted
- mean percentage change in body weight from baseline ([2]; week 36, across dose groups 12-45 mg): −9.4% to −14.7
- HbA1c treatment difference vs placebo [3]: −1.7%
- mean changes from baseline in HbA1c [3]: up to −2.1%
- mean weight loss [3]: up to 10 kg
- weight loss treatment difference vs placebo [3]: 8 kg
